Source: patent US10611740B2, “Aryl dihydro-2H-benzo[b][1,4]oxazine sulfonamide and related compounds for use as agonists of RORγ and the treatment of disease” (Lycera Corporation, priority 2015, dated 2020)

Assays:
RORγ-LBD = molecular target: T1, RORγ-LBD (Homo sapiens, UniProt P51449); test: RORγ-Ligand Binding Domain (LBD) TR-FRET Assay; format: biochemical;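 as to TR-FRET Assay Max Response: 665/615 nm ratio relative to signal without ursolic acid or compound set at 100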
T1 construct: made in house; host or cells: SF9 cells (baculovirus)
T1 sequence (P51449 269-508 limits assumed): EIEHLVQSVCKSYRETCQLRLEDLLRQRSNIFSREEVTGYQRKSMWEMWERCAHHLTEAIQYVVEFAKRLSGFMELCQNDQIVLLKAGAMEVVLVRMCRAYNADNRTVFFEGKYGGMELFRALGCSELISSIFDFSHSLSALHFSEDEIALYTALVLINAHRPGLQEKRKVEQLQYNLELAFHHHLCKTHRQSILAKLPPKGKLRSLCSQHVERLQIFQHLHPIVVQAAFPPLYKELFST
Outline: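 SF9 lysate containing His-RORγ-LBD, ~3 nM final; coactivator peptide biotin-SRC1 LXXLL, 200 nM final; ursolic acid 2 μM final; DMSO 1% final; Tris pH 7.0 buffer with KCl, EDTA, DTT, BSA. TR-FRET format.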

Gal4-RORγ-LBD = molecular target: T2, Gal4-RORγ-LBD (Homo sapiens, UniProt P51449); test: Gal4-RORγ Luciferase Reporter Assay in HEK-293T Cells; format: cell-based; conditions: HEK-293 cells, luciferase reporter, with 2 μM ursolic acid
T2 construct: expressed in transfected cells; host or cells: HEK-293 cells (pcDNA3.1neo plasmid)
T2 sequence (P51449 269-508 limits assumed): T1 sequence (P51449 269-508 limits assumed)
Outline: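 In transfected HEK-293 cells (Gal4-RORγ-LBD, Gal4-luciferase), test agents with 2 μM ursolic acid were incubated overnight at 37 °C before luminescent detection. Values are relative to the ursolic-acid-free, compound-free signal (100).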

NS(=O)(=O)CCC(=O)NC[C@H]1CN(S(=O)(=O)c2cccc(C(F)(F)F)c2)c2cc(-c3cc(F)ccc3F)ccc2O1 [Compound 30AL, (S)-N-((6-(2,5-difluorophenyl)-4-((3-(trifluoromethyl)phenyl)-sulfonyl)-3,4-dihydro-2H-benzo[b][1,4]oxazin-2-yl)methyl)-3-sulfamoyl-propanamide]
EC50 (RORγ-LBD): < 500 nM | TR-FRET Assay Max Response (RORγ-LBD): **** (The symbol “****” indicates a value greater than 200) | EC50 (Gal4-RORγ-LBD): < 500 nM | Gal4-RORγ Assay Max Response (Gal4-RORγ-LBD): * (The symbol “*” indicates a value in the range of 25 to 90)

O=C(NC[C@H]1CN(S(=O)(=O)c2cccc(C(F)(F)F)c2)c2cc(-c3cc(F)ccc3F)ccc2O1)[C@@H]1C[C@@H]1F [Compound 30AM, (1S,2S)-N-(((S)-6-(2,5-difluoro-phenyl)-4-((3-(trifluoromethyl)-phenyl)sulfonyl)-3,4-dihydro-2H-benzo[b][1,4]oxazin-2-yl)methyl)-2-fluorocyclo-propane-1-carboxamide]
EC50 (RORγ-LBD): < 500 nM | TR-FRET Assay Max Response (RORγ-LBD): **** (The symbol “****” indicates a value greater than 200) | EC50 (Gal4-RORγ-LBD): < 500 nM | Gal4-RORγ Assay Max Response (Gal4-RORγ-LBD): ** (The symbol “**” indicates a value in the range of greater than 90 to 150)

O=C(NC[C@H]1CN(S(=O)(=O)c2cccc(C(F)(F)F)c2)c2cc(-c3cc(F)ccc3F)ccc2O1)[C@H]1C[C@H]1F [Compound 30AN, (1R,2R)-N-(((S)-6-(2,5-difluoro-phenyl)-4-((3-(trifluoromethyl)-phenyl)sulfonyl)-3,4-dihydro-2H-benzo[b][1,4]oxazin-2-yl)methyl)-2-fluorocyclo-propane-1-carboxamide]
EC50 (RORγ-LBD): < 500 nM | TR-FRET Assay Max Response (RORγ-LBD): **** (The symbol “****” indicates a value greater than 200) | EC50 (Gal4-RORγ-LBD): < 500 nM | Gal4-RORγ Assay Max Response (Gal4-RORγ-LBD): ** (The symbol “**” indicates a value in the range of greater than 90 to 150)

CC(C)(C)C(=O)NC[C@H]1CN(S(=O)(=O)c2cccc(C(F)(F)F)c2)c2cc(-c3cc(F)ccc3F)ccc2O1 [Compound 30AO, (S)-N-((6-(2,5-difluorophenyl)-4-((3-(trifluoromethyl)phenyl)-sulfonyl)-3,4-dihydro-2H-benzo[b][1,4]oxazin-2-yl)methyl)pivalamide]
EC50 (RORγ-LBD): < 500 nM | TR-FRET Assay Max Response (RORγ-LBD): **** (The symbol “****” indicates a value greater than 200) | EC50 (Gal4-RORγ-LBD): < 500 nM | Gal4-RORγ Assay Max Response (Gal4-RORγ-LBD): * (The symbol “*” indicates a value in the range of 25 to 90)

N#CCC(=O)NC[C@H]1CN(S(=O)(=O)c2cccc(C(F)(F)F)c2)c2cc(-c3cc(F)ccc3F)ccc2O1 [Compound 30AP, (S)-2-cyano-N-((6-(2,5-difluoro-phenyl)-4-((3-(trifluoromethyl)-phenyl)sulfonyl)-3,4-dihydro-2H-benzo[b][1,4]oxazin-2-yl)methyl)acetamide]
EC50 (RORγ-LBD): < 500 nM | TR-FRET Assay Max Response (RORγ-LBD): *** (The symbol “***” indicates a value in the range of greater than 150 to 200) | EC50 (Gal4-RORγ-LBD): < 500 nM | Gal4-RORγ Assay Max Response (Gal4-RORγ-LBD): * (The symbol “*” indicates a value in the range of 25 to 90)

CC(C)(C#N)C(=O)NC[C@H]1CN(S(=O)(=O)c2cccc(C(F)(F)F)c2)c2cc(-c3cc(F)ccc3F)ccc2O1 [Compound 30AQ, (S)-2-cyano-N-((6-(2,5-difluoro-phenyl)-4-((3-(trifluoromethyl)-phenyl)sulfonyl)-3,4-dihydro-2H-benzo[b][1,4]oxazin-2-yl)methyl)-2-methylpropanamide]
EC50 (RORγ-LBD): < 500 nM | TR-FRET Assay Max Response (RORγ-LBD): *** (The symbol “***” indicates a value in the range of greater than 150 to 200) | EC50 (Gal4-RORγ-LBD): < 500 nM | Gal4-RORγ Assay Max Response (Gal4-RORγ-LBD): * (The symbol “*” indicates a value in the range of 25 to 90)

O=C(NC[C@H]1CN(S(=O)(=O)c2cccc(C(F)(F)F)c2)c2cc(-c3cc(F)ccc3F)ccc2O1)C1(F)CC1 [Compound 30AR, (S)-N-((6-(2,5-difluorophenyl)-4-((3-(trifluoromethyl)phenyl)-sulfonyl)-3,4-dihydro-2H-benzo[b][1,4]oxazin-2-yl)-methyl)-1-fluorocyclopropane-1-carboxamide]
EC50 (RORγ-LBD): < 500 nM | TR-FRET Assay Max Response (RORγ-LBD): **** (The symbol “****” indicates a value greater than 200) | EC50 (Gal4-RORγ-LBD): < 500 nM | Gal4-RORγ Assay Max Response (Gal4-RORγ-LBD): * (The symbol “*” indicates a value in the range of 25 to 90)

CC(=O)N[C@@H](C(=O)NC[C@H]1CN(S(=O)(=O)c2cccc(C(F)(F)F)c2)c2cc(-c3cc(F)ccc3F)ccc2O1)C(C)C [Compound 30AS]
EC50 (RORγ-LBD): < 500 nM | TR-FRET Assay Max Response (RORγ-LBD): *** (The symbol “***” indicates a value in the range of greater than 150 to 200) | EC50 (Gal4-RORγ-LBD): 500 to 5000 nM | Gal4-RORγ Assay Max Response (Gal4-RORγ-LBD): * (The symbol “*” indicates a value in the range of 25 to 90)

CC(=O)N[C@H](C)C(=O)NC[C@H]1CN(S(=O)(=O)c2cccc(C(F)(F)F)c2)c2cc(-c3cc(F)ccc3F)ccc2O1 [Compound 30AT, (R)-2-acetamido-N-(((S)-6-(2,5-difluorophenyl)-4-((3-(trifluoro-methyl)phenyl)sulfonyl)-3,4-dihydro-2H-benzo[b][1,4]-oxazin-2-yl)methyl)propanamide]
EC50 (RORγ-LBD): < 500 nM | TR-FRET Assay Max Response (RORγ-LBD): *** (The symbol “***” indicates a value in the range of greater than 150 to 200) | EC50 (Gal4-RORγ-LBD): 500 to 5000 nM | Gal4-RORγ Assay Max Response (Gal4-RORγ-LBD): ** (The symbol “**” indicates a value in the range of greater than 90 to 150)

CC(C)(CO)C(=O)NC[C@H]1CN(S(=O)(=O)c2cccc(C(F)(F)F)c2)c2cc(-c3cc(F)ccc3F)ccc2O1 [Compound 30AU, (S)-N-((6-(2,5-difluorophenyl)-4-((3-(trifluoromethyl)phenyl)-sulfonyl)-3,4-dihydro-2H-benzo[b][1,4]oxazin-2-yl)methyl)-3-hydroxy-2,2-dimethylpropanamide]
EC50 (RORγ-LBD): < 500 nM | TR-FRET Assay Max Response (RORγ-LBD): **** (The symbol “****” indicates a value greater than 200) | EC50 (Gal4-RORγ-LBD): < 500 nM | Gal4-RORγ Assay Max Response (Gal4-RORγ-LBD): ** (The symbol “**” indicates a value in the range of greater than 90 to 150)

CC1(C(=O)NC[C@H]2CN(S(=O)(=O)c3cccc(C(F)(F)F)c3)c3cc(-c4cc(F)ccc4F)ccc3O2)CC1 [Compound 30AV, (S)-N-((6-(2,5-difluorophenyl)-4-((3-(trifluoromethyl)phenyl)-sulfonyl)-3,4-dihydro-2H-benzo[b][1,4]oxazin-2-yl)methyl)-1-methylcyclo-propane-1-carboxamide]
EC50 (RORγ-LBD): < 500 nM | TR-FRET Assay Max Response (RORγ-LBD): *** (The symbol “***” indicates a value in the range of greater than 150 to 200) | EC50 (Gal4-RORγ-LBD): < 500 nM | Gal4-RORγ Assay Max Response (Gal4-RORγ-LBD): * (The symbol “*” indicates a value in the range of 25 to 90)

C=CCC(=O)NC[C@H]1CN(S(=O)(=O)c2cccc(C(F)(F)F)c2)c2cc(-c3cc(F)ccc3F)ccc2O1 [Compound 30AW, (S)-N-((6-(2,5-difluorophenyl)-4-((3-(trifluoromethyl)phenyl)-sulfonyl)-3,4-dihydro-2H-benzo[b][1,4]oxazin-2-yl)methyl)but-3-enamide]
EC50 (RORγ-LBD): < 500 nM | TR-FRET Assay Max Response (RORγ-LBD): *** (The symbol “***” indicates a value in the range of greater than 150 to 200) | EC50 (Gal4-RORγ-LBD): < 500 nM | Gal4-RORγ Assay Max Response (Gal4-RORγ-LBD): ** (The symbol “**” indicates a value in the range of greater than 90 to 150)

CC(C)C(=O)NC[C@H]1CN(S(=O)(=O)c2cccc(C(F)(F)F)c2)c2cc(-c3cc(F)ccc3F)ccc2O1 [Compound 30AX, (S)-N-((6-(2,5-difluorophenyl)-4-((3-(trifluoromethyl)phenyl)-sulfonyl)-3,4-dihydro-2H-benzo[b][1,4]oxazin-2-yl)methyl)isobutyramide]
EC50 (RORγ-LBD): < 500 nM | TR-FRET Assay Max Response (RORγ-LBD): *** (The symbol “***” indicates a value in the range of greater than 150 to 200) | EC50 (Gal4-RORγ-LBD): < 500 nM | Gal4-RORγ Assay Max Response (Gal4-RORγ-LBD): ** (The symbol “**” indicates a value in the range of greater than 90 to 150)

CC(=O)OCC(=O)NC[C@H]1CN(S(=O)(=O)c2cccc(C(F)(F)F)c2)c2cc(-c3cc(F)ccc3F)ccc2O1 [Compound 30AY, (S)-2-(((6-(2,5-difluorophenyl)-4-((3-(trifluoromethyl)phenyl)-sulfonyl)-3,4-dihydro-2H-benzo[b][1,4]oxazin-2-yl)methyl)amino)-2-oxoethyl acetate]
EC50 (RORγ-LBD): < 500 nM | TR-FRET Assay Max Response (RORγ-LBD): *** (The symbol “***” indicates a value in the range of greater than 150 to 200) | EC50 (Gal4-RORγ-LBD): < 500 nM | Gal4-RORγ Assay Max Response (Gal4-RORγ-LBD): ** (The symbol “**” indicates a value in the range of greater than 90 to 150)

O=C(NC[C@H]1CN(S(=O)(=O)c2cccc(C(F)(F)F)c2)c2cc(-c3cc(F)ccc3F)ccc2O1)C1CCCC1 [Compound 30AZ, (S)-N-((6-(2,5-difluorophenyl)-4-((3-(trifluoromethyl)phenyl)-sulfonyl)-3,4-dihydro-2H-benzo-[b][1,4]oxazin-2-yl)methyl)-cyclopentanecarboxamide]
EC50 (RORγ-LBD): < 500 nM | TR-FRET Assay Max Response (RORγ-LBD): **** (The symbol “****” indicates a value greater than 200) | EC50 (Gal4-RORγ-LBD): < 500 nM | Gal4-RORγ Assay Max Response (Gal4-RORγ-LBD): ** (The symbol “**” indicates a value in the range of greater than 90 to 150)
